The results in this text go back to US20210403924A1, “Method for selecting cells based on CRISPR/Cas-mediated integration of a detectable tag to a target protein” (Hoffmann-La Roche Inc., priority 2018, published 2021).

Structures can show the parent of a compound that is named as a salt. A value given as a limit tells only on which side of the number the result lay.

Data set [1] is described as follows: CellTiter-Glo cell viability assay, titration of antibiotic concentrations (killing curve). Type of data set: cell-based, human. The note with it: human. The method, then:
(§1) HEK293A wild-type cells were treated for 72 h with various concentrations of the antibiotics (a) hygromycin B and (b) puromycin, respectively. Cell viability was determined with the CellTiter-Glo assay.
(§2) The CellTiter-Glo assay was used to determine the number of viable cells in a sample. The method is based on the quantification of the ATP amount as an indicator of metabolically active cells. The CellTiter-Glo Luminescent Cell Viability Assay Kit from Promega was used for the experiments. The CellTiter-Glo reagent was freshly prepared before each experiment. For this purpose, the substrate, which contains inter alia luciferin and a luciferase, was dissolved in the accompanying buffer. After direct addition to the medium of the cells, lysis of the cells occurs first. Viable cells produce ATP in their mitochondria, which is thereby released. In the presence of ATP, the luciferin is converted by the UltraGlo r-luciferase. This produces a stable luminescence signal which is proportional to the amount of ATP present and thus to the number of viable cells.
(§3) The assay was used to optimize transfection and to titrate the optimal antibiotic concentrations of hygromycin B and puromycin for post-transfection selection. In all assays, cells were seeded in a black flat bottom 96-well plate with a transparent bottom. When titrating the antibiotic concentrations, 7,500 cells were seeded per well. The next day, the cells were treated with various concentrations of the antibiotic. After […], the viability of the cells was determined by the assay in which 100 μL of the CellTiter-Glo reagent was added to each well. Subsequently, the plate was shaken on a plate shaker for 2 min. at 200 rpm. After incubation in the dark for 10 minutes, the luminescence signal was measured on the luminometer.

Data set [2] relates to HEK293A wild-type cells. The data set is described as above. Type of data set: cell-based, human. The note with it: HEK293A wild-type cells. The method, then:
as §1, §2, §3

With `COc1ccc(C[C@H](N)C(=O)N[C@H]2[C@@H](O)[C@H](n3cnc4c(N(C)C)ncnc43)O[C@@H]2CO)cc1` [puromycin, Puromycin dihydrochloride], the figures for the viability at 72 h, 2 μg/mL in data set [1] (cell viability) and in data set [1] (cell viability expected at selection concentration) were less than 15% and approximately 12%, respectively.

Consider `CN[C@H]1C[C@@H](N)[C@H](O)[C@@H](O[C@@H]2O[C@H](CO)[C@H](O)[C@@H]3OC4(O[C@H]23)O[C@H]([C@@H](N)CO)[C@H](O)[C@H](O)[C@H]4O)[C@@H]1O` (stereo partly shown) [hygromycin B, Hygromycin B], for which, in data set [2] (20 μg/mL, 72 h), the cell viability result is “less than 20%”. In addition, in data set [2] (50 μg/mL), the “cell viability expected at selection concentration” value was “about 12%”.
